The record followed here is patent US20040127361A1 (priority 2003, published 2004).

Common to all, as to type: in vivo
In experiment [1] the test system is Erysiphe graminis f sp. tritici. As to the kind of experiment: Test A: wheat powdery mildew, preventive spray on wheat seedlings. Particulars: wheat seedlings sprayed to run-off, inoculated following day with spore dust, 20° C. for 7 days; test concentration not stated. An excerpt: (§1) General protocol for preparing test suspensions: Test compounds are first dissolved in acetone in an amount equal to 3% of the final volume and then suspended at the desired concentration (in ppm) in acetone and purified water (50/50 mix) containing 250 ppm of the surfactant Trem® 014 (polyhydric alcohol esters). The resulting test suspensions are then used in the following tests. Spraying a 200 ppm test suspension to the point of run-off on the test plants is the equivalent of a rate of 500 g/ha
The test suspension was sprayed to the point of run-off on wheat seedlings. The following day the seedlings were inoculated with a spore dust of Erysiphe graminis f sp. tritici, (the causal agent of wheat powdery mildew) and incubated in a growth chamber at 20° C. for 7 days, after which disease ratings were made.
(§2) Results for Tests A-D are given in Table A. In the table, a rating of 100 indicates 100% disease control and a rating of 0 indicates no disease control (relative to the controls). A dash (-) indicates no test results. ND indicates disease control not determined due to phytotoxicity.

Another experiment has as its system Puccinia recondita. As to the kind of experiment: Test B: wheat leaf rust, preventive spray on wheat seedlings. To be noted: wheat seedlings sprayed to run-off, inoculated following day with spore suspension, saturated atmosphere 20° C. 24 hours then growth chamber 6 days; test concentration not stated.
Description: as §1
The test suspension was sprayed to the point of run-off on wheat seedlings. The following day the seedlings were inoculated with a spore suspension of Puccinia recondita (the causal agent of wheat leaf rust) and incubated in a saturated atmosphere at 20° C. for 24 hours, and then moved to a growth chamber at 20° C. for 6 days, after which disease ratings were made.
as §2

The next experiment has as its system Phytophthora infestans. To be noted: tomato seedlings sprayed to run-off, inoculated following day with spore suspension, saturated atmosphere 20° C. 24 hours then growth chamber 5 days; test concentration not stated.

Take `Cc1cnc2c(c1)CCCC2NC(=O)c1c(F)cccc1F` (stereo not drawn) [Compound A4]: the “Test A disease control rating (100 = 100% disease control, 0 = no disease control relative to the controls)” value in experiment [1] is on record as 0%. The “Test B disease control rating (100 = 100% disease control, 0 = no disease control relative to the controls)” value with Puccinia recondita is on record as 0%. Further, the “Test C disease control rating (100 = 100% disease control, 0 = no disease control relative to the controls)” value with Phytophthora infestans amounted to 90%.
For the compound `Cc1cnc2c(c1)CCCC2NC(=O)c1cccnc1Nc1cccc(C(F)(F)F)c1` (stereo not drawn) [Compound B1], the “Test A disease control rating (100 = 100% disease control, 0 = no disease control relative to the controls)” value in experiment [1] is on record as 0%. Moreover, the “Test B disease control rating (100 = 100% disease control, 0 = no disease control relative to the controls)” value with Puccinia recondita amounted to 19%. The “Test C disease control rating (100 = 100% disease control, 0 = no disease control relative to the controls)” value with Phytophthora infestans amounted to 16%.
Consider `CSc1ncccc1C(=O)NC1CCCc2cc(C)cnc21` (stereo not drawn) [Compound B3], for which the “Test A disease control rating (100 = 100% disease control, 0 = no disease control relative to the controls)” value in experiment [1] came out at 0%. Further, the “Test B disease control rating (100 = 100% disease control, 0 = no disease control relative to the controls)” value in the experiment on Puccinia recondita worked out at 23%. For the same compound, the “Test C disease control rating (100 = 100% disease control, 0 = no disease control relative to the controls)” value in the experiment on Phytophthora infestans turned out to be 56%.
For `Cc1cnc2c(c1)CCCC2NC(=O)c1cccnc1O` (stereo not drawn) [Compound B8] the same measures were 0%, 19% and 47%.
In the case of `Cc1cnc2c(c1)CCCC2NC(=O)c1c(F)cccc1Cl` (stereo not drawn) [Compound A9], the “Test A disease control rating (100 = 100% disease control, 0 = no disease control relative to the controls)” value in experiment [1] stood at 0%. For the same compound, the “Test B disease control rating (100 = 100% disease control, 0 = no disease control relative to the controls)” value in the experiment with Puccinia recondita was 38%. Further, in the experiment on Phytophthora infestans, the “Test C disease control rating (100 = 100% disease control, 0 = no disease control relative to the controls)” value is on record as 97%.
For `Cc1cnc2c(c1)CCCC2NC(=O)c1ccccc1C` (stereo not drawn) [Compound A7] the same measures were 0%, 45% and 75%.
The like results for `Cc1cnc2c(c1)CCCC2NC(=O)c1c(F)ccc(F)c1F` (stereo not drawn) [Compound A8, 2,3,6-trifluoro-N-(5,6,7,8-tetrahydro-3-methyl-8-quinolinyl)benzamide] were, in that order, 0%, 55% and 100%.
As to `Cc1cnc2c(c1)CCCC2NC(=O)c1ccc(Cl)nc1` (stereo not drawn) [Compound B4], in experiment [1], the “Test A disease control rating (100 = 100% disease control, 0 = no disease control relative to the controls)” value was determined as 0%. The “Test B disease control rating (100 = 100% disease control, 0 = no disease control relative to the controls)” value in the experiment on Puccinia recondita was 9%. For the same compound, the “Test C disease control rating (100 = 100% disease control, 0 = no disease control relative to the controls)” value with Phytophthora infestans stood at 32%.
Consider `Cc1cnc2c(c1)CCCC2NC(=O)c1ccccc1Cl` (stereo not drawn) [Compound A5], for which the “Test A disease control rating (100 = 100% disease control, 0 = no disease control relative to the controls)” value in experiment [1] stood at 0%. Also, the “Test B disease control rating (100 = 100% disease control, 0 = no disease control relative to the controls)” value with Puccinia recondita is listed as 55%. In the experiment with Phytophthora infestans, the “Test C disease control rating (100 = 100% disease control, 0 = no disease control relative to the controls)” value came out at 46%.
Consider `Cc1cnc2c(c1)CCCC2NC(=O)c1ccc(Br)cc1` (stereo not drawn) [Compound A2], for which the “Test A disease control rating (100 = 100% disease control, 0 = no disease control relative to the controls)” value in experiment [1] stood at 0%. In addition, the “Test B disease control rating (100 = 100% disease control, 0 = no disease control relative to the controls)” value in the experiment on Puccinia recondita came to 18%. Further, the “Test C disease control rating (100 = 100% disease control, 0 = no disease control relative to the controls)” value in the experiment with Phytophthora infestans worked out at 5%.
The like results for `COc1cc(C(=O)NC2CCCc3cc(C)cnc32)cc(Cl)n1` (stereo not drawn) [Compound C2, 2-chloro-6-methoxy-N-(5,6,7,8-tetrahydro-3-methyl-8-quinolinyl)4-pyridinecarboxamide] were, in that order, 95%, 28% and 18%.
For `Cc1cnc2c(c1)CCCC2NC(=O)c1ccnc(Cl)c1` (stereo not drawn) [Compound C1] the same measures were 0%, 55% and 84%.
For `Cc1cnc2c(c1)CCCC2NC(=O)c1ccccc1C(F)(F)F` (stereo not drawn) [Compound A3] the same measures were 0%, 41% and 47%.
Regarding `Cc1cnc2c(c1)CCCC2NC(=O)c1c(Cl)cccc1Cl` (stereo not drawn) [Compound A1, 2,6-dichloro-N-(5,6,7,8-tetrahydro-3-methyl-8-quinolinyl)benzamide], the “Test A disease control rating (100 = 100% disease control, 0 = no disease control relative to the controls)” value in experiment [1] came to 0%. In addition, in the experiment on Puccinia recondita, the “Test B disease control rating (100 = 100% disease control, 0 = no disease control relative to the controls)” value amounted to 84%. Moreover, the “Test C disease control rating (100 = 100% disease control, 0 = no disease control relative to the controls)” value with Phytophthora infestans is 100%.
For `Cc1cnc2c(c1)CCCC2NC(=O)c1c(Cl)cc(Cl)cc1Cl` (stereo not drawn) [Compound A6] the same measures were 0%, 9% and 82%.
